Measurements taken from article PMC10460389, “Design of 8-mer peptides that block Clostridioides difficile toxin A in intestinal cells” (Communications Biology, 2023).

Tests used:
C. diff. infection = details: antibiotic treatment (metronidazole and vancomycin); cited from earlier work
Source text: Multiple therapeutic approaches have been developed to treat C. diff. infection. The standard practice is treatment with antibiotics (metronidazole and vancomycin), but in 20% of cases infection reoccurs. Exposure to these antibiotics alters the microbial community in the gut, facilitating colonization by C. diff[21].

TcdA GTD catalytic site = details: cited from earlier work
[1] = test system: small intestinal (jejunum) cells exposed to TcdA; details: cited from earlier work
TcdA GTD = details: 0.5 μM UDP-Glucose-Fluorescein 15 min; vs no-TcdA-AF594 no-UDP-Glucose-Fluorescein control RP(-T -U) for SA1; two-tailed T-test
Experimental: For the bead-based assay, statistical analyses were performed using a two-tailed T-test in conjunction with the RP (-T) control. Significance was determined at p < 0.05. […] Approximately 40 beads were imaged for each sample, with images containing out-of-focus beads or bead aggregates being excluded. […] Each SPR sensor was used to run two samples across two separate channels, leading to a total of 14 measurements. However, one measurement was excluded due to the loss of a stable signal.

| Compound | cases in which infection reoccurs (C. diff. infection) | ΔGbinding (TcdA GTD catalytic site) | neutralization of TcdA in jejunum / small intestinal cells [1] | change in green fluorescence from center to halo (TcdA binding) region (TcdA GTD) |
| --- | --- | --- | --- | --- |
| Cc1ncc([N+](=O)[O-])n1CCO [metronidazole] | 20% | – | – | – |
| CN[C@H](CC(C)C)C(=O)N[C@H]1C(=O)N[C@@H](CC(N)=O)C(=O)N[C@H]2C(=O)N[C@H]3C(=O)N[C@H](C(=O)N[C@H](C(=O)O)c4cc(O)cc(O)c4-c4cc3ccc4O)[C@H](O)c3ccc(c(Cl)c3)Oc3cc2cc(c3O[C@@H]2O[C@H](CO)[C@@H](O)[C@H](O)[C@H]2O[C@H]2C[C@](C)(N)[C@H](O)[C@H](C)O2)Oc2ccc(cc2Cl)[C@H]1O [vancomycin] | 20% | – | – | – |
| DGWIQHYKHR [NPC, computationally designed 10-mer peptide from previous work] | – | -6.15 | neutralized toxin A in jejunum cells | – |
| GMFWQHRRHD [NPB, computationally designed 10-mer peptide from previous work] | – | -11.35 | neutralized toxin A in jejunum cells | – |
| HEWGRRHN [SA7] | – | – | – | All peptides except SA7 showed a significant (p < 0.005) decrease in green fluorescence |
